From patent publication US20250145633A1, “SUBSTITUTED FURANOPYRIMIDINE COMPOUNDS AS PDE1 INHIBITORS” (Dart NeuroScience, LLC, priority 2017, published 2025)

The molecules below were run against human PDE1B enzyme (Homo sapiens (Human), UniProt Q01064) (assay: IMAP TR-FRET PDE1B enzymatic assay). Conditions: negative log of half-maximal molar inhibitory concentration; 200 nM FAM-cAMP; values given as bins.
Type: biochemical
Summary of the method: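 Full-length GST-tagged human PDE1B (250 pg/well) in IMAP BSA buffer with 10 U/ml calmodulin and 2.5 mM CaCl2; compound pre-incubated 5 min at room temperature, then 200 nM (final) FAM-cAMP for 30 min. IMAP binding reagent/Tb added, 1 h; TR-FRET 520/490 ratio read. IC50 from sigmoidal dose-response fit.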

SMILES | PDE1b (pIC50)
Cc1oc2ncnc(NC3(C)CC3)c2c1C(=O)N1CCC(c2ncc(F)cc2Cl)CC1 [Example 334, 5-[4-(3-Chloro-5-fluoropyridin-2-yl)piperidine-1-carbonyl]-6-methyl-N-(1-methylcyclopropyl)furo[2,3-d]pyrimidin-4-amine] | >8
COc1ccc(C2CCN(C(=O)c3c(C)oc4ncnc(NC5(C)CC5)c34)CC2)nc1 [Example 366, 5-[4-(5-Methoxypyridin-2-yl)piperidine-1-carbonyl]-6-methyl-N-(1-methylcyclopropyl)furo[2,3-d]pyrimidin-4-amine] | >8
Cc1cnc(CNC(=O)c2c(C)oc3ncnc(NC4(C)CC4)c23)s1 [Example 467, 6-Methyl-N-[(5-methyl-1,3-thiazol-2-yl)methyl]-4-[(1-methylcyclopropyl)amino]furo[2,3-d]pyrimidine-5-carboxamide] | >8
Cc1oc2ncnc(NC3(C)CC3)c2c1C(=O)N1CCc2c(ncnc2NC(C)C)C1 [Example 762, 6-Methyl-N-(1-methylcyclopropyl)-5-f{4-[(propan-2-yl)amino]-5H,6H,7H,8H-pyrido[3,4-d]pyrimidine-7-carbonyl}furo[2,3-d]pyrimidin-4-amine] | >8
COc1ccc(C(C)NC(=O)c2c(C)oc3ncnc(NC4(C)CC4)c23)cc1C (centres unmarked) [Example 502, N-[1-(4-Methoxy-3-methylphenyl)ethyl]-6-methyl-4-[(1-methylcyclopropyl)amino]furo[2,3-d]pyrimidine-5-carboxamide] | >8
Cc1oc2ncnc(NC3(C)CC3)c2c1C(=O)NC1CCN(C)CC1 [Example 193, 6-Methyl-4-[(1-methylcyclopropyl)amino]-N-(1-methylpiperidin-4-yl)furo[2,3-d]pyrimidine-5-carboxamide] | <6
Cc1oc2ncnc(NC3(C)CC3)c2c1C(=O)N1CC(c2cccc(F)n2)C1 [Example 354, 5-[3-(6-Fluoropyridin-2-yl)azetidine-1-carbonyl]-6-methyl-N-(1-methylcyclopropyl)furo[2,3-d]pyrimidin-4-amine] | >8

Same assay, conditions: negative log of half-maximal molar inhibitory concentration; 200 nM FAM-cAMP; values given as bins; read-out: PDE1b (pIC50) (converted)

SMILES | IC50 [nM]
Cc1oc2ncnc(NC3(C)CC3)c2c1C(=O)N1CCc2nnc(Cl)cc2C1 [Example 288, 5-{3-Chloro-5H,6H,7H,8H-pyrido[4,3-c]pyridazine-6-carbonyl}-6-methyl-N-(1-methylcyclopropyl)furo[2,3-d]pyrimidin-4-amine] | 100 to 1000
Cc1oc2ncnc(NC3(C)CC3)c2c1C(=O)NCc1ccc(OC(F)(F)F)cc1 [Example 722, 6-Methyl-4-[(1-methylcyclopropyl)amino]-N-{[4-(trifluoromethoxy)phenyl]methyl}furo[2,3-d]pyrimidine-5-carboxamide] | 10 to 100
CCCNC(=O)c1c(C)oc2ncnc(NC3(C)CC3)c12 [Example 211, 6-Methyl-4-[(1-methylcyclopropyl)amino]-N-propylfuro[2,3-d]pyrimidine-5-carboxamide] | 10 to 100
Cc1oc2ncnc(NC3(C)CC3)c2c1C(=O)N1CC=C(c2ncc(F)cn2)CC1 [Example 15, 5-[4-(5-Fluoropyrimidin-2-yl)-1,2,3,6-tetrahydropyridine-1-carbonyl]-6-methyl-N-(1-methylcyclopropyl)furo[2,3-d]pyrimidin-4-amine] | 10 to 100
Cc1oc2ncnc(NC3(C)CC3)c2c1C(=O)Nc1cnn(C2CCOCC2)c1 [Example 456, 6-Methyl-4-[(1-methylcyclopropyl)amino]-N-[1-(oxan-4-yl)-1H-pyrazol-4-yl]furo[2,3-d]pyrimidine-5-carboxamide] | 10 to 100
Cc1oc2ncnc(NC3(C)CC3)c2c1C(=O)NCc1ccccn1 [Example 76, 6-Methyl-4-[(1-methylcyclopropyl)amino]-N-(pyridin-2-ylmethyl)furo[2,3-d]pyrimidine-5-carboxamide] | 10 to 100
CCNC(=O)c1c(C)oc2ncnc(NC3(C)CC3)c12 [Example 82, N-Ethyl-6-methyl-4-[(1-methylcyclopropyl)amino]furo[2,3-d]pyrimidine-5-carboxamide] | 10 to 100
Cc1oc2ncnc(NC3(C)CC3)c2c1C(=O)N1CCC(c2cnn(C)c2)C1 (centres unmarked) [Example 321, 6-Methyl-5-[3-(1-methyl-1H-pyrazol-4-yl)pyrrolidine-1-carbonyl]-N-(1-methylcyclopropyl)furo[2,3-d]pyrimidin-4-amine] | 10 to 100
Cc1oc2ncnc(NC3(C)CC3)c2c1C(=O)N1CCN(c2ncc(F)cn2)CC1 [Example 153, 5-[4-(5-Fluoropyrimidin-2-yl)piperazine-1-carbonyl]-6-methyl-N-(1-methylcyclopropyl)furo[2,3-d]pyrimidin-4-amine] | 10 to 100
Cc1oc2ncnc(NC3(C)CC3)c2c1C(=O)N1CCOC(c2ccccn2)C1 (centres unmarked) [Example 118, 6-Methyl-N-(1-methylcyclopropyl)-5-[2-(pyridin-2-yl)morpholine-4-carbonyl]furo[2,3-d]pyrimidin-4-amine] | 10 to 100
Cc1oc2ncnc(NC3(C)CC3)c2c1C(=O)N1CCc2c(ncnc2N2CCOCC2)C1 [Example 787, 6-Methyl-N-(1-methylcyclopropyl)-5-[4-(morpholin-4-yl)-5H,6H,7H,8H-pyrido[3,4-d]pyrimidine-7-carbonyl]furo[2,3-d]pyrimidin-4-amine] | 10 to 100
Cc1oc2ncnc(NC3(C)CC3)c2c1C(=O)NCc1ccc(N2CCOCC2)cc1 [Example 184, 6-Methyl-4-[(1-methylcyclopropyl)amino]-N-{[4-(morpholin-4-yl)phenyl]methyl}furo[2,3-d]pyrimidine-5-carboxamide] | 10 to 100
Cc1cc(N2CCC(NC(=O)c3c(C)oc4ncnc(NC5(C)CC5)c34)CC2)ncn1 [Example 671, 6-Methyl-4-[(1-methylcyclopropyl)amino]-N-[1-(6-methylpyrimidin-4-yl)piperidin-4-yl]furo[2,3-d]pyrimidine-5-carboxamide] | 100 to 1000
Cc1oc2ncnc(NC3(C)CC3)c2c1C(=O)NC1(C(F)(F)F)CC1 [Example 86, 6-Methyl-4-[(1-methylcyclopropyl)amino]-N-[1-(trifluoromethyl)cyclopropyl]furo[2,3-d]pyrimidine-5-carboxamide] | 10 to 100
Cc1oc2ncnc(NC3(C)CC3)c2c1C(=O)NC1COC1 [Example 83, 6-Methyl-4-[(1-methylcyclopropyl)amino]-N-(oxetan-3-yl)furo[2,3-d]pyrimidine-5-carboxamide] | 100 to 1000
Cc1ccnc(CNC(=O)c2c(C)oc3ncnc(NC4(C)CC4)c23)c1 [Example 466, 6-Methyl-4-[(1-methylcyclopropyl)amino]-N-[(4-methylpyridin-2-yl)methyl]furo[2,3-d]pyrimidine-5-carboxamide] | 10 to 100
Cc1oc2ncnc(NC3(C)CC3)c2c1C(=O)NCc1ccccc1 [Example 177, N-Benzyl-6-methyl-4-[(1-methylcyclopropyl)amino]furo[2,3-d]pyrimidine-5-carboxamide] | 10 to 100
Cc1oc2ncnc(NC3(C)CC3)c2c1C(=O)NCc1cn(C)cn1 [Example 116, 6-Methyl-N-[(1-methyl-1H-imidazol-4-yl)methyl]-4-[(1-methylcyclopropyl)amino]furo[2,3-d]pyrimidine-5-carboxamide] | 10 to 100
Cc1oc2ncnc(NC3(C)CC3)c2c1C(=O)NC(C)c1ncc(F)cn1 (centres unmarked) [Example 302, N-[1-(5-Fluoropyrimidin-2-yl)ethyl]-6-methyl-4-[(1-methylcyclopropyl)amino]furo[2,3-d]pyrimidine-5-carboxamide] | 10 to 100
Cc1csc(NC(=O)c2c(C)oc3ncnc(NC4(C)CC4)c23)n1 [Example 443, 6-Methyl-N-(4-methyl-1,3-thiazol-2-yl)-4-[(1-methylcyclopropyl)amino]furo[2,3-d]pyrimidine-5-carboxamide] | 10 to 100
COc1ccc(CNC(=O)c2c(C)oc3ncnc(NC4(C)CC4)c23)nc1F [Example 678, N-[(6-Fluoro-5-methoxypyridin-2-yl)methyl]-6-methyl-4-[(1-methylcyclopropyl)amino]furo[2,3-d]pyrimidine-5-carboxamide] | 10 to 100
Cc1oc2ncnc(NC3(C)CC3)c2c1C(=O)NCc1ccnc(-n2ccnc2)c1 [Example 674, N-{[2-(1H-Imidazol-1-yl)pyridin-4-yl]methyl}-6-methyl-4-[(1-methylcyclopropyl)amino]furo[2,3-d]pyrimidine-5-carboxamide] | 10 to 100
Cc1oc2ncnc(NC3(C)CC3)c2c1C(=O)N1CC(c2ncc(C(F)(F)F)cc2F)C1 [Example 38, 5-{3-[3-Fluoro-5-(trifluoromethyl)pyridin-2-yl]azetidine-1-carbonyl}-6-methyl-N-(1-methylcyclopropyl)furo[2,3-d]pyrimidin-4-amine] | 10 to 100
Cc1oc2ncnc(NC3(C)CC3)c2c1C(=O)N1CCC(c2ccccn2)C1 (centres unmarked) [Example 70, 6-Methyl-N-(1-methylcyclopropyl)-5-[3-(pyridin-2-yl)pyrrolidine-1-carbonyl]furo[2,3-d]pyrimidin-4-amine] | 10 to 100
Cc1oc2ncnc(NC3(C)CC3)c2c1C(=O)N1CCN(c2ccnc(F)c2)CC1 [Example 160, 5-[4-(2-fluoropyridin-4-yl)piperazine-1-carbonyl]-6-methyl-N-(1-methylcyclopropyl)furo[2,3-d]pyrimidin-4-amine] | 10 to 100
Cc1cc(C)n(C(=O)c2c(C)oc3ncnc(NC4(C)CC4)c23)n1 [Example 411, 5-(3,5-Dimethyl-1H-pyrazole-1-carbonyl)-6-methyl-N-(1-methylcyclopropyl)furo[2,3-d]pyrimidin-4-amine] | 10 to 100
Cc1oc2ncnc(NC3(C)CC3)c2c1C(=O)NC1(C)COC1 [Example 105, 6-Methyl-4-[(1-methylcyclopropyl)amino]-N-(3-methyloxetan-3-yl)furo[2,3-d]pyrimidine-5-carboxamide] | 10 to 100
Cc1oc2ncnc(NC3(C)CC3)c2c1C(N)=O [Example 761, 6-Methyl-4-[(1-methylcyclopropyl)amino]furo[2,3-d]pyrimidin-5-carboxamide] | 100 to 1000
